Entries after “also recorded” stand apart in the source; their conditions may differ. One block for each compound: values may come before it. Ends that are not written are not given here.
Experiments:
[1] = tested on: PDE1/4 chimera (PDE1B regulatory domain fused to the PDE4D catalytic domain); experiment: PDE4 inhibitor inhibition of the PDE1/4 chimera (SPA); type: biochemical, human; settings: [3H]-cAMP; for Inhibition of PDE1/4 chimera activity (in words) / Rolipram potency on PDE1/4 chimera relative to PDE4D catalytic domain (in words) / Rolipram affinity/potency boost on calcium/calmodulin-activated PDE1/4 chimera (in words): pH 7.2, 1 h, room temperature; for Rolipram potency on PDE1/4 chimera relative to PDE4D catalytic domain (in words): IC50, 3–5 independent experiments, without calcium/calmodulin activation; for Rolipram affinity/potency boost on calcium/calmodulin-activated PDE1/4 chimera (in words): chimera activated by calcium/calmodulin
Source text: (§1) Human PDE1B1 (Refseq: NM_000924.4) and its N-terminal deletion constructs were cloned into BamH1 and Xho1 sites of pcDNA3.1(+) using PCR. The stated boundary and amino acid positions for mutants and deletion constructs are based on the PDE1B1 isoform (Refseq: NP_000915). For all N-terminal constructs, a start codon was introduced upstream of the indicated boundary, resulting in a methionine preceding the amino acid specified by the N-terminal boundaries. Point mutations and internal deletions were generated using the QuickChange^TM site-directed mutagenesis method, as previously described. The PDE1B-PDE4D chimera was generated by inserting the human PDE4D catalytic domain with a PCR-introduced N-terminal BspE1 site into a pcDNA3.1-PDE1B (82-end) construct using an internal BspE1 site at the junction of the regulatory and catalytic domain and an Xho1 site downstream of the stop codon. All constructs were validated through sequencing. Maps and sequences are available upon request. Alignments were generated using Geneious Prime (v 2024.0.7). Amino acids are colored according to the RasMol color scheme, and similarities are indicated according to the BLOSUM substitution matrix.
Plasmids were transiently transfected into HEK293 cells using Lipofectamine 2000 (Thermo Fisher, Waltham, MA, USA) according to the manufacturer’s instructions. For each well of a 6-well plate, 5 µg plasmid and 10 µL Lipofectamine 2000 were used.
Next, 48 h after transfection, cells were washed once with ice-cold PBS, scraped off into 2 mL PBS, and pelleted via centrifugation at 700× g for 5 min at 4 °C. The resulting cell pellet was frozen. Later, the pellet was thawed and resuspended in 0.5 mL of lysis buffer 50 mM Tris-HCL (pH 8.0) (Sigma-Aldrich, T3253, St. Louis, MO, USA), 1 mM MgCl2, and Complete ULTRA protease inhibitor cocktail (Roche, 05892970001, Basel, Switzerland). The lysate was then centrifuged at 20.000× g for 10 min at 4 °C to remove nuclei and membranes. Then, 0.05% Tween20 (Sigma-Aldrich, P2287) (final concentration) was added to the supernatant containing the cytosolic PDE1 before it was aliquoted and snap frozen.
PDE activity was measured using a scintillation proximity assay (SPA)-based method, similar to that previously described. Briefly, assays were conducted in 96-well plates using a buffer containing 40 mM Hepes (pH 7.2), 140 mM KCl, and 1.5 mM MgCl2. In each well, 0.005–0.05 µL PDE lysate was mixed with or without final concentrations of 50 µM CaCl2 and 50 nM calmodulin (Sigma-Aldrich, P1431) in a volume of 55 µL, and allowed to stand for 5 min at room temperature. Lysate amounts were adjusted to ensure that less than 30% of the tritiated substrate was hydrolyzed. Next, 10 µL tritiated cyclic nucleotide substrate ([3H]-cGMP for PDE1 and [3H]-cAMP for PDE4 and the PDE1/4 chimera) was added, and the reaction was allowed to proceed for 1 h at room temperature before 15 µL of 8 mg/mL phosphodiesterase SPA beads (Perkin Elmer, RPNQ0150, Shelton, CT, USA) was added. After another hour at room temperature to allow binding of the reaction products to the beads, the plates were counted for 2 min using a liquid scintillation counter (Wallac Trilux, Turku, Finland). […] To avoid overestimating inhibition, PEP1-sol was also tested by adding it after reaction termination (i.e., after SPA bead addition) in concentration–response experiments, and pre-addition inhibition minus post-addition (apparent) inhibition at each concentration was used for IC50 calculations.
To test whether the regulatory domains are functionally transferable, we generated and expressed a PDE1/4 chimera with the regulatory domain from PDE1B fused to the catalytic domain from PDE4D (Figure S1).

[2] = tested on: PDE4 UCR2-containing isoforms; settings: cited from earlier work
Source text: For PDE4, the longer isoforms that contain the N-terminal upstream conserved regions (UCR1 and UCR2) are activated by phosphorylation via the cAMP-activated protein kinase A (PKA), providing feedback regulation. […] To test whether the regulatory domains are functionally transferable, we generated and expressed a PDE1/4 chimera with the regulatory domain from PDE1B fused to the catalytic domain from PDE4D (Figure S1). […] Rolipram is a selective PDE4 inhibitor with higher potency towards PD ...

PDE1B_82–501 = experiment: Calcium/calmodulin activation of PDE1B_82–501 (SPA); type: biochemical, human; settings: 50 nM calmodulin and 50 µM CaCl2; deletion of 35 amino acids from C-terminal
Source text: as §1, with “Alignments were generated using Geneious Prime (v 2024.0.7). Amino acids are colored according to the RasMol color scheme, and similarities are indicated according to the BLOSUM substitution matrix.” left out
(§2) PDE activity was measured using a scintillation proximity assay (SPA)-based method, similar to that previously described. […] After another hour at room temperature to allow binding of the reaction products to the beads, the plates were counted for 2 min using a liquid scintillation counter (Wallac Trilux, Turku, Finland). […] Since absorbance was low, this had only a minor impact on IC50 estimates. […]

[3] = molecular target: T1, PDE1B catalytic domain (PDE1B-cata) (Homo sapiens, UniProt Q01064); experiment: Inhibition of PDE1B-cata enzyme activity by inhibitory domain peptides added in trans (SPA); type: biochemical; settings: [3H]-cGMP, pH 7.2, 1 h, room temperature, post-addition (apparent) inhibition subtracted, average ± SEM from 3 independent experiments
T1 construct: compared to the PDE1B catalytic domain (PDE1B-cata; 146–536); added initiator methionine (single Met before residue 146); made in house; host or cells: HEK293 cells, transiently transfected with pcDNA3.1(+) construct; cleared cytosolic lysate used, not purified
Source text: as §1, with “Alignments were generated using Geneious Prime (v 2024.0.7). Amino acids are colored according to the RasMol color scheme, and similarities are indicated according to the BLOSUM substitution matrix.” left out
as §2

[4] = Solubility of inhibitory domain peptides; type: physicochemical

T1 sequence (Q01064 146-536): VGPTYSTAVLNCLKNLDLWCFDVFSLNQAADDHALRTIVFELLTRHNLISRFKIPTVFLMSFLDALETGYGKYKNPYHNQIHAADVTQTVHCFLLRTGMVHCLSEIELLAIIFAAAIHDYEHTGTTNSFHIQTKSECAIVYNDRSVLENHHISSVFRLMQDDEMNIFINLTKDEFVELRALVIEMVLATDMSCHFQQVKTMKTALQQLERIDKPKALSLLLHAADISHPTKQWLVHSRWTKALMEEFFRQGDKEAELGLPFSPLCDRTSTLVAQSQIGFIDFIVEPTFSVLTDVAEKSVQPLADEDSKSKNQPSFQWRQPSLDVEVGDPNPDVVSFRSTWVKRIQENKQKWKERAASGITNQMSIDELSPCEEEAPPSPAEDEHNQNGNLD

Compound: COc1ccc(C2CNC(=O)C2)cc1OC1CCCC1 (stereo not shown) [rolipram]
- Inhibition of PDE1/4 chimera activity (in words) [1]: could be inhibited
- Rolipram potency on PDE1/4 chimera relative to PDE4D catalytic domain (in words) [1]: inhibited the PDE1/4 chimera more potently than the PDE4D catalytic domain
- Rolipram potency on PDE1/4 chimera relative to PDE4D catalytic domain (in words) ([1]; listed as Rolipram): inhibits the PDE1/4 chimera more potently than the PDE4D catalytic domain alone
- Rolipram affinity/potency boost on calcium/calmodulin-activated PDE1/4 chimera (in words) [1]: affinity boost was lost when the chimera was activated by calcium/calmodulin
- Rolipram affinity/potency boost on calcium/calmodulin-activated PDE1/4 chimera (in words) ([1]; listed as Rolipram): increased potency is lost upon activation of the chimera by calcium/calmodulin
- Rolipram affinity for UCR2-containing isoforms compared to the catalytic domain alone (in words) ([2]; compared to the catalytic domain alone): higher affinity
- Rolipram potency towards PDE4 isoforms containing regulatory domains (in words) ([2]; selective PDE4 inhibitor): higher potency towards PDE4 isoforms containing regulatory domains

- Effect of calcium/calmodulin activation on roflumilast IC50 towards chimera (in words) ([1]; 3-4 independent experiments): unaffected by
Compound: O=C(Nc1c(Cl)cncc1Cl)c1ccc(OC(F)F)c(OCC2CC2)c1 [roflumilast]
- Roflumilast IC50 towards chimera compared with PDE4Dcata (in words) ([1]; 3-4 independent experiments, one-way ANOVA with Sidak's): not significantly different from PDE4D catalytic domain
- Inhibition of PDE1/4 chimera activity (in words) [1]: could be inhibited; also recorded: inhibits the PDE1/4 chimera

Compound: calmodulin
- Calmodulin regulation of PDE1B_82–501 (in words) (PDE1B_82–501): no impact on calmodulin regulation of activity

- IC50 [3]: 17.9 ± 2.1 µM
- Solubility (in words) [4]: more soluble variant
Compound: SDEVPSEVRDWLASTFTRQ [PEP1-sol]

Reference: PMC12610503, “The Molecular Mechanism of PDE1 Regulation” (Cells, 2025)
